Test results: patent publication US8604048B2, “Pyridocarbazole type compounds and applications thereof” (Centre National de la Recherche Scientifique, priority 2009, dated 2013)

What was measured:
[1] = tested on: LIMK1 activity in HeLa cells; test: Cellular LIMK1 activity assay (Ser3-cofilin phosphorylation, western blot); type: cell-based, Human; conditions: for Inhibition of Ser3-cofilin phosphorylation in HeLa cells: 2 h, indicated concentrations
Procedure: HeLa cells were treated by compounds (or equivalent amount of DMSO as control) at indicated concentrations and time. Whole cell extracts were prepared using RIPA buffer (50 mM Tris-HCl pH=7.4, 150 mM NaCl, 1% NP-40, 0.5% sodium deoxycholate, 1% SDS, 1 mM EGTA, 1 mM EDTA, 5% glycerol, 1 mM DTT) supplemented with protease inhibitors (Sigma, P8340) and phosphatase inhibitors (Sigma, P5726). About thirty micrograms of proteins were loaded and migrated through a 12% SDS-PAGE. After electro-transfer, the nitrocellulose membrane was saturated with PBS, 0.1% Tween® 20, 5% Bovin Serum Albumin. Amount and phosphorylation status of cofilin were estimated using the polyclonal antibodies anti-cofilin (Cytoskeleton, #ACFLO2) and anti-phosphocofilin (Ser3) (Cell Signaling, #3311). Goat anti-rabbit IgG-HorseRadish Peroxidase conjugated (Biosource, #ALI0404) was used as secondary antibody. Detection was performed using ECL plus western blotting detection system (GE Healthcare).
HeLa cells were treated by 25 μM Compound 1 (H06) for 2 h (lane 2). Culture medium was then discarded and fresh medium (RPMI) was added. At different times after RPMI addition (lane 3, 30 minutes; lane 4, 1 hour; lane 5, 1.5 hour; lane 6, 2 hours; lane 7, 4 hours), amount and phosphorylation status of cofilin were determined as described in Example 2. The lane 1 corresponds to time “0”, i.e. a cell extract of cells that have not been treated with Compound 1.
HeLa cells were treated by indicated concentrations of Compound 1 (or ellipticine as negative control) for 2 h.
Amount and phosphorylation status of cofilin were determined as described in Example 2. In vitro phosphorylated cofilin (left) was used as control.
HeLa cells were treated by 25 μM of Compound 1 for indicated time. Amount and phosphorylation status of cofilin were determined as described in Example 2.

[2] = tested on: actin network of HeLa cells; test: Stability of the actin network to a depolymerization induced by latrunculin B; type: cell-based, Human
Procedure: 7. a step of analysis of the effect of the compound to be tested on the actin network, via incubation of HeLa cells with the compound to be tested. […] When the actin network is stabilized, the latrunculin-induced depolymerization of the actin network is limited.
The cells are grown on glass coverslips and incubated as for the tubulin staining. After elimination of the medium, the cells are washed with warm PBS then fixed, by addition of a solution of PBS/3.7% formaldehyde for 30 minutes at 37° C. The cells are washed with PBS then permeabilized with a solution of PBS/0.2% Triton X100 for 15 minutes at room temperature. After another washing with PBS, the cells are incubated with a solution of PBS/1% BSA for 30 minutes at room temperature. The cells are then incubated with phalloidin (0.165 μM final concentration) labelled with Alexa Fluor® 488 (Molecular Probes, Invitrogen) for 20 minutes at room temperature. The cells are washed a final time with PBS then dehydrated with pure ethanol. Finally, the cells are fixed to slides using a Fluorsave™ mounting solution.
8) Test for the Action on the Actin Cytoskeleton: Protocol for Evaluating, in Cells, the Stability of the Actin Network to a Depolymerization Induced by Latrunculin B
3 days before the experiment, glass coverslips are deposited under sterile conditions in 24-well microplates. In each well, HeLa cells (15 000 cells per well) in the exponential growth phase are seeded in 500 μl of RPMI medium.
PBS (phosphate buffered saline, ref. P4417, Sigma), PBS/1% BSA (bovine serum albumin, Ref. A3059, Sigma), aliquots of 15 ml, stored at −20° C.; PBS/0.2% Triton X100 (Ref. T8787, Sigma); PBS/0.01% Tween® 20 (Ref. P9916, Sigma); PBS/0.3% BSA/0.02% NaN3 (Ref. for the NaN3: 6688, Merck), aliquots of 15 ml stored at −20° C. Phalloidin A488, (Ref. A12379, Invitrogen). L4: rabbit anti-detyrosinated-tubulin polyclonal antibody (cf. Fonrose et al., Cancer Res., […], 67:3371-3378). Anti-rabbit antibody coupled to Cyanine 3 (Ref. 111.165.144, Jackson Laboratories). […]

Row | SMILES | Reversibility of inhibition of Ser3-cofilin phosphorylation in HeLa cells ([1]; 25 μM for 2 h, then replaced by RPMI medium) | Inhibition of Ser3-cofilin phosphorylation in HeLa cells [1] | Treatment time after which the inhibitory effect on cofilin phosphorylation is detected ([1]; HeLa, 25 μM) | Protection of the actin network from depolymerization by latrunculin B ([2]; HeLa cells, confocal microscope) | Effect on the stabilization of actin microfilaments ([2]; general statement)
1 | Cc1c2cc[nH]c(=O)c2c(C)c2c1[nH]c1ccc(OC(=O)c3ccccc3)cc12 [Compound 1, 9-benzoyloxy-5,11-dimethyl-2H,6H-pyrido[4,3-b]carbazol-1-one] | phospho-cofilin is synthesized again | clearly inhibits the formation of phospho-cofilin, in a dose-dependent manner | 30 min | protects the actin network | 
2 | Cc1c2ccncc2c(C)c2c1[nH]c1ccccc12 [ellipticine] |  | does not avoid the phosphorylation of cofilin |  |  | does not have any effect
